This note sets out measurements from patent publication US20140088298A9, “CONJUGATES COMPRISING HYDROXYALKYL STARCH AND A CYTOTOXIC AGENT AND PROCESS FOR THEIR PREPARATION” (Fresenius Kabi Deutschland GmbH, priority 2010, published 2014).

Holding throughout (format): in vivo, NMRI:nu/nu mice
A short description of data set [1]: Body weight change as sign for toxicity, mouse tumor model MT-3. Conditions: for Toxic deaths (at day): n=8. Here is the method:
(§1) Tumor growth inhibition was used as therapeutic parameter. Additionally, body weight change was determined as signs for toxicity (particularly, potential hematological or gastrointestinal side effects).
(§2) Individual body weights of mice were determined twice weekly and mean body weight per group was related to the initial value in percent (body weight change, BWC), see tables in appendix.
(§3) Descriptive statistics was performed on the data of body weight and tumor volume. […] Statistical evaluation was performed with the U-test of Mann and Whitney with a significance level of p<0.05, using the Windows program […] 6.
(§4) Tables 18 to 24 summarize the results for the tested Docetaxel conjugates and the reference compound Taxotere®. […] The loss of body weight is known to be an indicator of gastro-intestinal and hepatotoxicity of the tested compound.

The nature of data set [2]: Body weight change as sign for toxicity, mouse tumor model PC3. The conditions noted are these: Table 20, PC3; maximum body weight loss; conjugates 1 x 75 mg/kg day 6; Docetaxel 5 mg/kg days 6-10. The method, then: as §1
Descriptive statistics was performed on the data of body weight and tumor volume. […] 6.

Data set [3] can be described thus: Body weight change as sign for toxicity, mouse tumor model A549. Conditions: Table 21, A549; maximum body weight loss; conjugates 1 x 75 mg/kg day 8; Docetaxel 5 mg/kg days 8-12. Here is the method:
as §1, §2, §3, §4

As to `CC(=O)O[C@H]1C(=O)[C@@]2(C)[C@H]([C@H](OC(=O)c3ccccc3)[C@]3(O)C[C@H](OC(=O)[C@H](O)[C@@H](NC(=O)c4ccccc4)c4ccccc4)C(C)=C1C3(C)C)[C@]1(OC(C)=O)CO[C@@H]1C[C@@H]2O` [Paclitaxel], the “Toxic deaths (at day)” value in data set [1] (Table 25, MT-3, conjugates 1 x 100 mg/kg day 7, Paclitaxel 12.5 mg/kg days 7-9, 10 mg/kg days 10-11) came out at 1; in data set [1] (Table 26, MT-3, conjugates 1 x 80 mg/kg day 10, Paclitaxel 10 mg/kg days 10-14), 0.

With `CC(=O)O[C@@]12CO[C@@H]1C[C@H](O)[C@@]1(C)C(=O)[C@H](O)C3=C(C)[C@@H](OC(=O)[C@H](O)[C@@H](NC(=O)OC(C)(C)C)c4ccccc4)C[C@@](O)([C@@H](OC(=O)c4ccccc4)[C@H]21)C3(C)C` [Taxotere, Docetaxel], in data set [1] (Table 18, MT-3, conjugates 1 x 100 mg/kg i.v. day 7, Docetaxel 10 mg/kg days 7, 9, 11), the “Toxic deaths (at day)” value came to 4. For the same molecule, in data set [1] (Table 23, MT-3, conjugates 1 x 75 mg/kg day 7, Docetaxel 5 mg/kg days 7-11), the “Toxic death (at day)” value is 0. Moreover, the “BWC [%] (at day)” value in data set [2] is given as −14%; in data set [3] it was −5%.
